Reference: ChEMBL document CHEMBL1201862, “PubChem BioAssay data set” (2004)
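Grown in 96-well plates, cells were treated for 48 hours with each compound at five concentrations. Insufficient inhibition: endpoint recorded as highest concentration tested. Abbreviation: GI50, concentration required for 50% inhibition of growth.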 Activity calls are given as the source filed them. Cut-off read from the data, not from the text of the source: active = GI50 up to about 1.1 µM and inactive = higher.

How the values were obtained:
Assay in all cases: inhibition of tumour cell growth, NCI panel, 48 h
[1] = tested on: DU-145
[2] = tested on: HL-60
[3] = tested on: HOP-92
[4] = tested on: Hs-578T
[5] = tested on: LOX IMVI
[6] = tested on: MCF7
[7] = tested on: MDA-MB-231
[8] = tested on: MDA-MB-435
[9] = tested on: MDA-N
[10] = tested on: NCI/ADR-RES
[11] = tested on: PC-3
[12] = tested on: T47D
[13] = tested on: 786-0
[14] = tested on: A498
[15] = tested on: A549
[16] = tested on: ACHN
[17] = tested on: CAKI-1
[18] = tested on: CCRF-CEM
[19] = tested on: COLO 205
[20] = tested on: EKVX
[21] = tested on: HCC 2998
[22] = tested on: HCT-116
[23] = tested on: HOP-62
[24] = tested on: HT-29
[25] = tested on: IGROV-1
[26] = tested on: K562
[27] = tested on: KM12
[28] = tested on: M14
[29] = tested on: MOLT-4
[30] = tested on: NCI-H226
[31] = tested on: NCI-H23
[32] = tested on: NCI-H460
[33] = tested on: NCI-H522
[34] = tested on: OVCAR-3
[35] = tested on: OVCAR-4
[36] = tested on: OVCAR-5
[37] = tested on: OVCAR-8
[38] = tested on: RPMI-8226
[39] = tested on: RXF 393
[40] = tested on: SF-268
[41] = tested on: SF-295
[42] = tested on: SF-539
[43] = tested on: SK-MEL-28
[44] = tested on: SK-MEL-5
[45] = tested on: SK-OV-3
[46] = tested on: SN12C
[47] = tested on: SNB-75
[48] = tested on: SR
[49] = tested on: SW-620
[50] = tested on: TK-10
[51] = tested on: U-251
[52] = tested on: UACC-257
[53] = tested on: UACC-62
[54] = tested on: UO-31
[55] = tested on: HCT-15
[56] = tested on: Malme-3M
[57] = tested on: SK-MEL-2
[58] = tested on: SNB-19

C/C=C/C=C/c1cc2cc3c(c(O)c2c(=O)[nH]1)C1(CC3)C(=O)c2c(O)c3c(c(O)c2C1=O)C(=O)C(OC)=CC3=O (stereo unspecified)
GI50 [1]: 0.378 µM (active) | GI50 [2]: < 0.01 µM (active) | GI50 [3]: 0.0328 µM (active) | GI50 [4]: 0.132 µM (active) | GI50 [5]: 0.0205 µM (active) | GI50 [6]: 0.0681 µM (active) | GI50 [7]: 0.203 µM (active) | GI50 [8]: 0.303 µM (active) | GI50 [9]: 0.267 µM (active) | GI50 [10]: 0.283 µM (active) | GI50 [11]: 0.0573 µM (active) | GI50 [12]: < 0.01 µM (active)

O=C(CC(C(=O)c1ccco1)c1ccco1)c1ccco1 (stereo unspecified)
GI50 [13]: > 100 µM (inactive) | GI50 [14]: > 100 µM (inactive) | GI50 [15]: > 100 µM (inactive) | GI50 [16]: > 100 µM (inactive) | GI50 [17]: > 100 µM (inactive) | GI50 [18]: 71.1 µM (inactive) | GI50 [19]: > 100 µM (inactive) | GI50 [1]: > 100 µM (inactive) | GI50 [20]: > 100 µM (inactive) | GI50 [21]: > 100 µM (inactive) | GI50 [22]: > 100 µM (inactive) | GI50 [2]: > 100 µM (inactive) | GI50 [23]: > 100 µM (inactive) | GI50 [3]: > 100 µM (inactive) | GI50 [24]: > 100 µM (inactive) | GI50 [4]: > 100 µM (inactive) | GI50 [25]: > 100 µM (inactive) | GI50 [26]: > 100 µM (inactive) | GI50 [27]: > 100 µM (inactive) | GI50 [5]: > 100 µM (inactive) | GI50 [28]: > 100 µM (inactive) | GI50 [6]: > 100 µM (inactive) | GI50 [7]: 78.9 µM (inactive) | GI50 [8]: > 100 µM (inactive) | GI50 [9]: > 100 µM (inactive) | GI50 [29]: > 100 µM (inactive) | GI50 [30]: > 100 µM (inactive) | GI50 [31]: > 100 µM (inactive) | GI50 [32]: > 100 µM (inactive) | GI50 [33]: > 100 µM (inactive) | GI50 [10]: > 100 µM (inactive) | GI50 [34]: > 100 µM (inactive) | GI50 [35]: 23.8 µM (inactive) | GI50 [36]: > 100 µM (inactive) | GI50 [37]: > 100 µM (inactive) | GI50 [38]: > 100 µM (inactive) | GI50 [39]: > 100 µM (inactive) | GI50 [40]: > 100 µM (inactive) | GI50 [41]: > 100 µM (inactive) | GI50 [42]: > 100 µM (inactive) | GI50 [43]: > 100 µM (inactive) | GI50 [44]: > 100 µM (inactive) | GI50 [45]: > 100 µM (inactive) | GI50 [46]: > 100 µM (inactive) | GI50 [47]: > 100 µM (inactive) | GI50 [48]: > 100 µM (inactive) | GI50 [49]: > 100 µM (inactive) | GI50 [12]: > 100 µM (inactive) | GI50 [50]: > 100 µM (inactive) | GI50 [51]: > 100 µM (inactive) | GI50 [52]: > 100 µM (inactive) | GI50 [53]: > 100 µM (inactive) | GI50 [54]: 33.1 µM (inactive)

CN(C)CCCNC(=O)CNC(=O)c1cc(NC(=O)c2cc(NC(=O)c3cc(NC(=O)CCNC(=O)c4cc(NC(=O)c5cc(NC(=O)c6nccn6C)cn5C)cn4C)cn3C)cn2C)cn1C
GI50 [13]: > 100 µM (inactive) | GI50 [14]: > 100 µM (inactive) | GI50 [15]: > 100 µM (inactive) | GI50 [16]: > 100 µM (inactive) | GI50 [17]: > 100 µM (inactive) | GI50 [18]: 24.5 µM (inactive) | GI50 [19]: > 100 µM (inactive) | GI50 [1]: > 100 µM (inactive) | GI50 [20]: > 100 µM (inactive) | GI50 [21]: > 100 µM (inactive) | GI50 [22]: > 100 µM (inactive) | GI50 [55]: > 100 µM | GI50 [2]: 43 µM (inactive) | GI50 [23]: > 100 µM (inactive) | GI50 [3]: > 100 µM (inactive) | GI50 [24]: > 100 µM (inactive) | GI50 [4]: > 100 µM (inactive) | GI50 [25]: > 100 µM (inactive) | GI50 [26]: 59.4 µM (inactive) | GI50 [27]: 64.6 µM (inactive) | GI50 [5]: > 100 µM (inactive) | GI50 [28]: > 100 µM (inactive) | GI50 [6]: > 100 µM (inactive) | GI50 [7]: > 100 µM (inactive) | GI50 [8]: > 100 µM (inactive) | GI50 [9]: > 100 µM (inactive) | GI50 [29]: 20.8 µM (inactive) | GI50 [56]: > 100 µM (inactive) | GI50 [30]: > 100 µM (inactive) | GI50 [31]: > 100 µM (inactive) | GI50 [32]: > 100 µM (inactive) | GI50 [33]: > 100 µM (inactive) | GI50 [10]: > 100 µM (inactive) | GI50 [34]: > 100 µM (inactive) | GI50 [35]: > 100 µM (inactive) | GI50 [36]: > 100 µM (inactive) | GI50 [37]: > 100 µM (inactive) | GI50 [11]: > 100 µM (inactive) | GI50 [38]: > 100 µM (inactive) | GI50 [40]: > 100 µM (inactive) | GI50 [41]: > 100 µM (inactive) | GI50 [42]: > 100 µM (inactive) | GI50 [43]: > 100 µM (inactive) | GI50 [57]: > 100 µM (inactive) | GI50 [44]: > 100 µM (inactive) | GI50 [45]: > 100 µM (inactive) | GI50 [46]: > 100 µM (inactive) | GI50 [58]: > 100 µM (inactive) | GI50 [47]: 41.3 µM (inactive) | GI50 [49]: > 100 µM (inactive) | GI50 [12]: > 100 µM (inactive) | GI50 [50]: > 100 µM (inactive) | GI50 [51]: > 100 µM (inactive) | GI50 [52]: > 100 µM (inactive) | GI50 [54]: > 100 µM (inactive)

O=C(/C=C/c1cccs1)c1ccsc1
GI50 [13]: 28.8 µM (inactive) | GI50 [14]: 38.7 µM (inactive) | GI50 [15]: 38 µM (inactive) | GI50 [16]: 20.2 µM (inactive) | GI50 [17]: 56.5 µM (inactive) | GI50 [18]: 16.5 µM (inactive) | GI50 [19]: 18.1 µM (inactive) | GI50 [1]: 50.2 µM (inactive) | GI50 [20]: 31.1 µM (inactive) | GI50 [21]: 17.4 µM (inactive) | GI50 [55]: 16.8 µM | GI50 [2]: 15.5 µM (inactive) | GI50 [23]: 73.5 µM (inactive) | GI50 [24]: 19.3 µM (inactive) | GI50 [25]: 25.1 µM (inactive) | GI50 [26]: 17.5 µM (inactive) | GI50 [27]: > 10 µM (inactive) | GI50 [5]: 17.2 µM (inactive) | GI50 [28]: 39.2 µM (inactive) | GI50 [6]: 10.4 µM (inactive) | GI50 [7]: > 10 µM (inactive) | GI50 [8]: 21.8 µM (inactive) | GI50 [9]: 18.9 µM (inactive) | GI50 [29]: 16.9 µM (inactive) | GI50 [56]: 22.2 µM (inactive) | GI50 [30]: 21.1 µM (inactive) | GI50 [31]: 18.1 µM (inactive) | GI50 [32]: 24.5 µM (inactive) | GI50 [10]: 35.2 µM (inactive) | GI50 [35]: 51.1 µM (inactive) | GI50 [36]: 26.9 µM (inactive) | GI50 [37]: 27.6 µM (inactive) | GI50 [11]: 22.4 µM (inactive) | GI50 [38]: 15.9 µM (inactive) | GI50 [40]: 45.1 µM (inactive) | GI50 [41]: 32.4 µM (inactive) | GI50 [43]: 32.7 µM (inactive) | GI50 [57]: 36.2 µM (inactive) | GI50 [44]: 18.9 µM (inactive) | GI50 [45]: 33.4 µM (inactive) | GI50 [46]: 19.8 µM (inactive) | GI50 [58]: 18.9 µM (inactive) | GI50 [47]: 27.8 µM (inactive) | GI50 [48]: 16.6 µM (inactive) | GI50 [49]: 29 µM (inactive) | GI50 [12]: 26.3 µM (inactive) | GI50 [50]: 22.7 µM (inactive) | GI50 [51]: > 10 µM (inactive) | GI50 [52]: 23 µM (inactive) | GI50 [53]: 16.5 µM (inactive) | GI50 [54]: 17.6 µM (inactive)
